# In patent US20230201284A1, “Uses and Formulations of Cannabinoids” (priority 2020, published 2023):
# Like-named read-outs stand apart in the source and are kept apart here.
# Experiments:
# IL-6 = details: animal models including diabetes, asthma, pancreatitis and hepatitis; cited from earlier work
# microglial cells = details: 1-16 μmol/l; cited from earlier work
# CD83 = details: cited from earlier work
# [1] = tested on: activated memory T cell line; details: 1-5 μmol/l, cited from earlier work
# human neutrophils = details: cited from earlier work
# NK, NKT, T and B cells = details: healthy rats, cited from earlier work
# [2] = systemic exposure after i.p. and oral application of CBD in mice (Deiana et al.); type: in vivo; details: 20 mg/kg, assuming dose-proportional plasma concentrations
# Procedure: A comparative investigation for systemic exposure after i.p. and oral application of CBD in mice and rats has shown that 120 mg/kg as a single dose leads to a maximum plasma concentration of 14,000 ng/ml in mice (S. Deiana et al. (2012). Plasma and brain pharmacokinetic profile of cannabidiol (CBD), cannabidivarine (CBDV), Delta(9)-tetrahydrocannabivarin (THCV) and cannabigerol (CBG) in rats and mice following oral and intraperitoneal administration and CBD action on obsessive-compulsive behaviour. Psychopharmacology (Berl) 219(3): 859-73).
# [3] = tested on: ischemia-reperfusion-induced kidney injury; details: mice, 10 mg/kg after induced kidney injury; cited from earlier work
# human mononuclear cells = details: nanomolar or micromolar concentrations; cited from earlier work
# [4] = tested on: LPS-induced acute lung injury; details: cited from earlier work
# [5] = tested on: chemically induced acute hepatitis; details: mice, 25 mg/kg; cited from earlier work
# [6] = mice, 120 mg/kg single dose; cited from earlier work
# [7] = n-octanol/water; cited from earlier work
# IL-6 secretion = details: cellular models, majority of cases; cited from earlier work
# [8] = prophylactic, i.p. 0.3-80 mg/kg 60 min before LPS
# [9] = therapeutic, 6 h after LPS, 20 mg/kg
structure (smiles),measurement,setting,value
"C=C(C)[C@@H]1CCC(C)=C[C@H]1c1c(O)cc(CCCCC)cc1O [CBD, 2-[(1R,6R)-3-methyl-6-(1-methylethenyl)-2-cyclohexen-1-yl]-5-pentyl-1,3-benzenediol]",circulating IL-6,IL-6,suppress
same,apoptosis in microglial cells,microglial cells,induces apoptosis
same,CD83 dendritic cell activation marker,CD83; dendritic cells from healthy individuals,not
same,CD83 dendritic cell activation marker,CD83; dendritic cells from individuals with HIV infection,suppresses
same,IL-6 production and secretion,[1],decreased
same,production of IL-10,[1],increased
same,Th17 signature cytokine IL-17,[1]; dose-dependently,decrease
same,migration of human neutrophils,human neutrophils,inhibits
same,numbers of NK cells and NKT cells,"NK, NKT, T and B cells; 2.5 mg/kg per day",increased
same,numbers of NK cells and NKT cells,"NK, NKT, T and B cells; 5 mg/kg per day",not affected
same,number of T cells including T helper cells and cytotoxic T cells and of B cells,"NK, NKT, T and B cells; daily 5 mg/kg",significantly reduced
same,target peak exposure,[2],"2,300 ng/ml"
same,decreased Treg17 levels and increased Th17 levels,[3],reversed these effects
same,effect on kidney injury,[3],renoprotective
same,release of pro-inflammatory cytokines,human mononuclear cells,suppressed
same,number of leukocytes including macrophages and neutrophils in the bronchoalveolar lavage fluid,"[4]; 20 mg/kg, after LPS-induced lung inflammation",decreases
same,myeloperoxidase activity,[4]; [8],significantly decreased
same,pro-inflammatory cytokine production including TNF-α and IL-6,[4]; [8],significantly decreased
same,total leukocytes migration,[4]; [8],significantly decreased
same,vascular permeability,[4]; [8],significantly decreased
same,"leukocyte migration (neutrophil, macrophages and lymphocytes) into the lungs",[4]; [9],decreased
same,mechanical lung function,[4]; [9],improved
same,myeloperoxidase activity in the lung tissue,[4]; [9],decreased
same,production of proinflammatory cytokines/chemokines,[4]; [9],reduced
same,vascular permeability,[4]; [9],reduced
same,expression of MDSCs,[5],induces
same,"pro-inflammatory cytokines such as IL-2, TNF-α and IL-6",[5],reduction
same,maximum plasma concentration,[6],"14,000 ng/ml"
same,log P,[7],about 6.1
same,effective concentration for suppressive effect on IL-6 secretion,IL-6 secretion,~5 µM
